In this assay the target is Gag-Pol polyprotein (Human immunodeficiency virus type 1 group M subtype B (isolate HXB2), UniProt P04585). Nature of the assay: HIV-1 RT In-Vitro Assay. Here is the method:
The reaction mixture was set with template primer complex, RT enzyme and dNTPs in a lysis buffer with or without inhibitors. The reaction mixture was incubated at 37 °C for 1 h and then transferred to streptavidine-coated microtitre plate (MTP). The biotin-labeled dNTPs that were incorporated in the template due to activity of RT, bound to streptavidine. The unbound dNTPs were washed using wash buffer and anti-DIG-POD was added to the MTP. The DIG-labeled dNTPs incorporated in the template were bound to an anti-DIG-POD antibody. The unbound anti-DIG-POD was washed again with washing buffer and the peroxide substrate (ABST) was added to the MTP. A colored reaction product was produced during the cleavage of the substrate catalyzed by a peroxide enzyme. The absorbance of the sample was determined as an optical density (OD) at 405 nm using a micro titer plate ELISA reader.

The source of these data is BindingDB's records for doi:10.1016/j.bioorg.2017.03.013 (Birla Institute of Technology, 2017).

As usually defined, the IC50 is the concentration at which inhibition is half-maximal. Low readings indicate higher potency, high ones lower potency. The molecule `CC1CC(=O)Nc2ccccc2N1C(=O)c1ccccc1Br` (centres undefined) [5-(2-bromobenzoyl)-4-methyl-1,3,4,5-tetrahydro-2H-1,5-benzodiazepin-2-one (A13)] gave an IC50 of 92.5 µM. In other words, the double-digit micromolar range.
The molecule `CC1CC(=O)Nc2ccccc2N1C(=O)c1ccccc1Cl` (centres undefined) [5-(2-chlorobenzoyl)-4-methyl-1,3,4,5-tetrahydro-2H-1,5-benzodiazepin-2-one (A10)] showed an IC50 of 8.62 µM.
Then `CC1CC(=O)Nc2ccccc2N1C(=O)c1ccccc1F` (centres undefined) [5-(2-fluorobenzoyl)-4-methyl-1,3,4,5-tetrahydro-2H-1,5-benzodiazepin-2-one (A7)], with above 100 µM.
As for `Cc1ccccc1C(=O)N1c2ccccc2NC(=O)CC1C` (centres undefined) [5-(2-methylbenzoyl)-4-methyl-1,3,4,5-tetrahydro-2H-1,5-benzodiazepin-2-one (A2)], the IC50 was found to be 14.3 µM.
As to `CC1CC(=O)Nc2ccccc2N1C(=O)c1cccc(Cl)c1` (centres undefined) [5-(3-chlorobenzoyl)-4-methyl-1,3,4,5-tetrahydro-2H-1,5-benzodiazepin-2-one (A11)], the IC50 turned out to be 6.87 µM.
To `CC1CC(=O)Nc2ccccc2N1C(=O)c1cccc(F)c1` (centres undefined) [5-(3-fluorobenzoyl)-4-methyl-1,3,4,5-tetrahydro-2H-1,5-benzodiazepin-2-one (A8)] belongs 76.3 µM.
Then `COc1cccc(C(=O)N2c3ccccc3NC(=O)CC2C)c1` (centres undefined) [5-(3-methoxybenzoyl)-4-methyl-1,3,4,5-tetrahydro-2H-1,5-benzodiazepin-2-one (A5)], with 87.9 µM.
To `Cc1cccc(C(=O)N2c3ccccc3NC(=O)CC2C)c1` (centres undefined) [5-(3-methylbenzoyl)-4-methyl-1,3,4,5-tetrahydro-2H-1,5-benzodiazepin-2-one (A3)] belongs 26.4 µM.
`CC1CC(=O)Nc2ccccc2N1C(=O)c1ccc(Br)cc1` (centres undefined) [5-(4-bromobenzoyl)-4-methyl-1,3,4,5-tetrahydro-2H-1,5-benzodiazepin-2-one (A14)] gave an IC50 of 68.7 µM.
Take `CC1CC(=O)Nc2ccccc2N1C(=O)c1ccc(Cl)cc1` (centres undefined) [5-(4-chlorobenzoyl)-4-methyl-1,3,4,5-tetrahydro-2H-1,5-benzodiazepin-2-one (A12)]: half-maximal inhibition (IC50) required 38.3 µM.
To `CC1CC(=O)Nc2ccccc2N1C(=O)c1ccc(F)cc1` (centres undefined) [5-(4-fluorobenzoyl)-4-methyl-1,3,4,5-tetrahydro-2H-1,5-benzodiazepin-2-one (A9)] belongs 25 µM; to `COc1ccc(C(=O)N2c3ccccc3NC(=O)CC2C)cc1` (centres undefined) [5-(4-methoxybenzoyl)-4-methyl-1,3,4,5-tetrahydro-2H-1,5-benzodiazepin-2-one (A6)], 54.6 µM; to `Cc1ccc(C(=O)N2c3ccccc3NC(=O)CC2C)cc1` (centres undefined) [5-(4-methylbenzoyl)-4-methyl-1,3,4,5-tetrahydro-2H-1,5-benzodiazepin-2-one (A4)], above 100 µM.
Then `CC1CC(=O)Nc2ccccc2N1C(=O)c1ccccc1` (centres undefined) [5-(benzoyl)-4-methyl-1,3,4,5-tetrahydro-2H-1,5-benzodiazepin-2-one (A1)], with 17.5 µM.
